Source: PubChem BioAssay AID1963828 (Molecular Pharmacology Branch, DTP, NCI, 2024)

Test system: 991263-137-R1-J2-PDC complex spheroid viability
Experiment: Anticancer human tumor 991263-137-R1-J2-PDC patient-derived colon adenocarcinoma cell line growth inhibition [POLQ]
Details: for IC50: curve of first compound; for viability, T/C: stronger effect = lower value
Protocol: Multicellular complex tumor spheroid response to Polymerase (POL) inhibitors (novobiocin, ART-558, RP6685) in combination with a variety of drugs and investigational agents in selected tumor cell lines
The POL inhibitors (novobiocin, ART-558, and RP6685) were evaluated both individually and in combination with standard of care and investigational anticancer small molecules within a complex spheroid model of solid tumors. . Complex spheroids include a stromal component modeled by human endothelial cells (HUVEC) and fibroblasts modeled by human mesenchymal stem cells (MSCs). The concentration ranges selected for each drug and investigational agent were based upon clinically achievable concentrations if the clinical Cmax of the agent was known.
Compounds. The drugs and investigational agents: novobiocin (NSC847541), ART-558 (NSC835418), RP-6685 (NSC848927), peposertib (NSC802822), ceralasertib (NSC780249), elimusertib (NSC800525), camonsertib (NSC841442), AZD-1390 (NSC803789), olaparib (NSC753686), talazoparib (NSC767125), rucaparib (NSC756644), sotorasib (NSC818433), MRTX-1133 (NSC836407), SN-38 (NSC673596), topotecan (NSC609699), epotoside (NSC141540), doxorubicin (NSC123127), gemcitabine (NSC613327), 5-fluorouracil (NSC19893), paclitaxel (NSC125973), vemurafenib (NSC761431), MSA-2 (NSC828583), SN-011 (NSC837082), adavosertib (NSC754352), prexasertib (NSC758257), carboplatin (NSC241240) and oxaliplatin (NSC266046), were obtained from the National Cancer Institute (NCI) Developmental Therapeutics Program Chemical Repository (21). The FDA-approved anticancer drug set is available from the Developmental Therapeutics Program at https://dtp.cancer.gov/organization/dscb/obtaining/. […] The stock solutions were prepared in dimethyl sulfoxide (DMSO, Sigma-Aldrich, St. Louis, MO, cat. D2650), except for the platinum compounds which were prepared in saline (Quality Biological, Gaithersburg, MD, cat. 114-055-101), at 800-fold the tested concentration and stored at -70 degrees C prior to their use. All drugs and investigational agents were tested over a range starting from a high concentration at or near the clinical Cmax and decreasing in half-log increments. If the clinical Cmax for an agent had not been determined, the highest concentration tested was 10 microM, except for SN-38, which was tested at a high concentration of 1 microM.
Cell Culture. All cells were maintained in an incubator at 37 degrees C and 5% CO2 with 95% humidity. The PDC lines were cultured according to standard operating procedures established by the NCI PDMR (https://pdmr.cancer.gov). Table 3 of the manuscript, lists the cell lines along with the number of the three cell types plated to form the mct-spheroids and media for tumor cell growth. After thawing, all PDC lines, except 997537-175-T-J1-PDC and 415267-285-R-J2-PDC, were cultured in Matrigel-coated flasks prepared with a working solution of 1X Ham's F-12 nutrient mix, without supplementation (Thermo Fisher Scientific, cat. 11765054), 100 U/mL penicillin-streptomycin (Thermo Fisher Scientific, cat. 15140122), and 2.5% Matrigel (Corning Inc., Corning, NY, cat. 354248) for the first three passages. The two PDC lines 997537-175-T-J1-PDC and 415267-285-R-J2-PDC were cultured on uncoated flasks. The 857933-349-R-J2-PDC line was cultured in 6C/Colon 1B media containing advanced DMEM/F-12 (Thermo Fisher Scientific, cat. 12634028), 10 mM HEPES (Thermo Fisher Scientific, cat. 15630080), 1X GlutaMAX supplement (Thermo Fisher Scientific, cat. 35050061), 0.1 mg/mL primocin (InvivoGen, San Diego, CA, cat. ant-pm-2), 10% defined fetal bovine serum, heat inactivated (HyClone Laboratories Inc., Logan, UT, cat. SH30070.03HI), 50% L-WRN conditioned media (ATCC, cat. CRL-3276), 1.25 mM N-Acetyl-L-cysteine (Sigma-Aldrich, cat. A9165), 10 mM nicotinamide (Sigma-Aldrich, cat. N0636), 1X B-27 supplement (Thermo Fisher Scientific, cat. 17504044), 1X N-2 supplement (Thermo Fisher Scientific, cat. […]

[1] = second compound 0.0316 µM, first compound 0.0316 µM
[2] = second compound 0.0316 µM, first compound 0.1 µM
[3] = second compound 0.0316 µM, first compound 0.316 µM
[4] = second compound 0.0316 µM, first compound 1 µM
[5] = second compound 0.0316 µM, first compound 3.16 µM
[6] = second compound 0.0316 µM, first compound 10 µM
[7] = second compound 0.1 µM, first compound 0.0316 µM
[8] = second compound 0.1 µM, first compound 0.1 µM
[9] = second compound 0.1 µM, first compound 0.316 µM
[10] = second compound 0.1 µM, first compound 1 µM
[11] = second compound 0.1 µM, first compound 3.16 µM
[12] = second compound 0.1 µM, first compound 10 µM
[13] = second compound 0.316 µM, first compound 0.0316 µM
[14] = second compound 0.316 µM, first compound 0.1 µM
[15] = second compound 0.316 µM, first compound 0.316 µM
[16] = second compound 0.316 µM, first compound 1 µM
[17] = second compound 0.316 µM, first compound 3.16 µM
[18] = second compound 0.316 µM, first compound 10 µM
[19] = second compound 1 µM, first compound 0.0316 µM
[20] = second compound 1 µM, first compound 0.1 µM
[21] = second compound 1 µM, first compound 0.316 µM
[22] = second compound 1 µM, first compound 1 µM
[23] = second compound 1 µM, first compound 3.16 µM
[24] = second compound 1 µM, first compound 10 µM
[25] = second compound 3.16 µM, first compound 0.0316 µM
[26] = second compound 3.16 µM, first compound 0.1 µM
[27] = second compound 3.16 µM, first compound 0.316 µM
[28] = second compound 3.16 µM, first compound 1 µM
[29] = second compound 3.16 µM, first compound 3.16 µM
[30] = second compound 3.16 µM, first compound 10 µM
[31] = second compound 10 µM, first compound 0.0316 µM
[32] = second compound 10 µM, first compound 0.1 µM
[33] = second compound 10 µM, first compound 0.316 µM
[34] = second compound 10 µM, first compound 1 µM
[35] = second compound 10 µM, first compound 3.16 µM
[36] = second compound 10 µM, first compound 10 µM
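Note: spheroids exposed to compounds for 7 days before readout.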
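Throughout, for viability, T/C: 100% = DMSO vehicle control viability.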

Compound: CC(C)n1c(=O)n(C)c2cnc3cc(F)c(-c4ccc(OCCCN5CCCCC5)nc4)cc3c21 + Cc1cccc(N(C)C(=O)C2C(O)CCN2c2nc(C)cc(C(F)(F)F)c2C#N)c1
- IC50 (second compound 0.0316 µM): > 10 µM
- IC50 (second compound 0.1 µM): > 10 µM
- IC50 (second compound 0.316 µM): > 10 µM
- IC50 (second compound 1 µM): > 10 µM
- IC50 (second compound 3.16 µM): > 10 µM
- IC50 (second compound 10 µM): > 10 µM
- viability, T/C [1]: 98.9%
- viability, T/C [2]: 97.1%
- viability, T/C [3]: 99.3%
- viability, T/C [4]: 90.9%
- viability, T/C [5]: 98.3%
- viability, T/C [6]: 83.9%
- viability, T/C [7]: 96.6%
- viability, T/C [8]: 99.9%
- viability, T/C [9]: 115%
- viability, T/C [10]: 90.7%
- viability, T/C [11]: 74%
- viability, T/C [12]: 79%
- viability, T/C [13]: 83.8%
- viability, T/C [14]: 101%
- viability, T/C [15]: 102%
- viability, T/C [16]: 106%
- viability, T/C [17]: 109%
- viability, T/C [18]: 80.4%
- viability, T/C [19]: 92.1%
- viability, T/C [20]: 99.5%
- viability, T/C [21]: 116%
- viability, T/C [22]: 90.8%
- viability, T/C [23]: 99.1%
- viability, T/C [24]: 81.2%
- viability, T/C [25]: 85.9%
- viability, T/C [26]: 98.3%
- viability, T/C [27]: 90.2%
- viability, T/C [28]: 101%
- viability, T/C [29]: 109%
- viability, T/C [30]: 61.3%
- viability, T/C [31]: 82%
- viability, T/C [32]: 104%
- viability, T/C [33]: 86.7%
- viability, T/C [34]: 80.1%
- viability, T/C [35]: 111%
- viability, T/C [36]: 67.2%

Compound: CCc1cc2c(N3CCc4c(cc(Cn5ccnc5)cc4-c4cn(C)nc4C(F)(F)F)C3=O)cc(C)nc2c(OC)n1 + Cc1cccc(N(C)C(=O)C2C(O)CCN2c2nc(C)cc(C(F)(F)F)c2C#N)c1
- IC50 (second compound 0.0316 µM): > 10 µM
- IC50 (second compound 0.1 µM): > 10 µM
- IC50 (second compound 0.316 µM): > 10 µM
- IC50 (second compound 1 µM): > 10 µM
- IC50 (second compound 3.16 µM): > 10 µM
- IC50 (second compound 10 µM): > 10 µM
- viability, T/C [1]: 99.4%
- viability, T/C [2]: 111%
- viability, T/C [3]: 95.7%
- viability, T/C [4]: 97.9%
- viability, T/C [5]: 96.7%
- viability, T/C [6]: 89.5%
- viability, T/C [7]: 109%
- viability, T/C [8]: 107%
- viability, T/C [9]: 96.2%
- viability, T/C [10]: 87.9%
- viability, T/C [11]: 98%
- viability, T/C [12]: 99.8%
- viability, T/C [13]: 113%
- viability, T/C [14]: 93.8%
- viability, T/C [15]: 101%
- viability, T/C [16]: 91.4%
- viability, T/C [17]: 107%
- viability, T/C [18]: 88.9%
- viability, T/C [19]: 100%
- viability, T/C [20]: 101%
- viability, T/C [21]: 84.5%
- viability, T/C [22]: 98.3%
- viability, T/C [23]: 104%
- viability, T/C [24]: 82%
- viability, T/C [25]: 101%
- viability, T/C [26]: 96%
- viability, T/C [27]: 106%
- viability, T/C [28]: 111%
- viability, T/C [29]: 95.3%
- viability, T/C [30]: 96.7%
- viability, T/C [31]: 95.7%
- viability, T/C [32]: 105%
- viability, T/C [33]: 90.9%
- viability, T/C [34]: 90.7%
- viability, T/C [35]: 84.5%
- viability, T/C [36]: 92.1%
